# Assay results published in the NIST ThermoML archive (doi:10.1016/j.fluid.2010.04.016).
# ± gives the expanded uncertainty stated by the source.
# Details: Crystal; visual observation
row,Normal melting temperature [°C],SMILES
1,7.04 ± 0.16,CCCCCCCCCCO [decan-1-ol]
2,-15.4 ± 0.16,CCCCCCCCO [octan-1-ol]
